Values after ≈ are worked out from the molar mass of the structure shown. Where two headings read alike, the source gives them in different places.
Assays:
[1] = system: β-galactosidase-expressing E. coli strain; assay: Wash resistance and biocidal activity of Py-C12 treated beech wood sheets (Example 19); type: cell-based; details: treated with 1% (w/v) free base; washed with water up to 30 washing steps, 15 min each; E. coli 4 days at 37° C.
Procedure: (§1) In a first step, 1% (w/v) Py-C12 free base in water) was warmed to 50° C. to obtain a liquid solution. After incubation of beech wood sheets with the Py-C12 solution, the samples were cooled to room temperature upon which the liquid Py-C12 was converted into a solid phase and thus immobilized to the material. After drying, samples were washed with water at room temperature 10 and times for 15 minutes each time. Thereafter, all samples were inoculated with a β-galactosidase-expressing E. coli strain and then incubated for 4 days at 37° C.

[2] = Influence of pH on state of matter of Py-C12 at 20° C. (Example 1); type: physicochemical; set-up: key to state of matter: X: liquid; o: solid; details: for solubility in water / state of matter: 1% (w/v); for state of matter: 1% w/v, 20° C.
Description: 1% (w/v) 5-N-carboxamido-2-pyrrolidone-N-n-dodecyl propane-1,3-diamine (Py-C12) free base was adjusted with HCl or NaOH to pH values between 3.0 and 10.0.

[3] = Modulation of the state of matter by pH shift using HCl and NaOH (Example 7); type: physicochemical
Candida albicans = assay: Quantitative Suspension Test, modified DIN EN ISO 11930:2019 with organic load; type: cell-based; details: 0.025% (w/v) Py-C12, pH 7.0, organic load, incubation 1 day
Procedure: (§2) In order to evaluate the bactericidal and fungicidal efficacy of Py-C12, Quantitative Suspension Tests were carried out under dirty conditions according to modified DIN EN ISO 11930:2019 with organic load using incubation periods of one and three days, respectively. For this purpose, 5-N-carboxamido-2-pyrrolidone-N-n-dodecyl propane-1,3-diamine (Py-C12) solutions were adjusted to pH 7.0 with HCl and subsequently diluted to corresponding test concentrations.

Pseudomonas aeruginosa = assay: as above; type: cell-based; details: 0.025% (w/v) Py-C12, pH 7.0, organic load, incubation 1 day
Procedure: as §2

Aspergillus brasiliensis = assay: as above; type: cell-based; details: 0.5% (w/v) Py-C12, pH 7.0, organic load, incubation 3 days
Procedure: as §2

Escherichia coli = assay: as above; type: cell-based; details: 0.025% (w/v) Py-C12, pH 7.0, organic load, incubation 1 day
Procedure: as §2

Staphylococcus aureus = assay: as above; type: cell-based; details: 0.01% (w/v) Py-C12, pH 7.0, organic load, incubation 1 day
Procedure: as §2

[4] = Modulation of the state of matter by salt concentration (Example 9); type: physicochemical; details: 2% (w/v), pH 7 (HCl), NaCl 0.5 M to 3 M in water, room temperature
Description: 2% (w/v) 5-N-carboxamido-2-pyrrolidone-N′-n-dodecyl propane-1,3-diamine (Py-C12) was adjusted with HCl to pH 7 and combined with different concentrations of NaCl ranging from 0.5 M to 3 M in water at room temperature. A clearly visible precipitate (white color) is observed at concentrations of 1.5 M or more (see FIG. 4).

[5] = Influence of temperature on the state of matter of Py-C12 at pH 7.0 and pH 9.0 (Example 2); type: physicochemical; set-up: key to state of matter: X: liquid; o: solid; details: for solubility in water / state of matter: 1% (w/v); for state of matter: 1% w/v
Procedure: 1% (w/v) 5-N-carboxamido-2-pyrrolidone-N-n-dodecyl propane-1,3-diamine (Py-C12) free base was adjusted with HCl or NaOH to pH values 7.0 and 9.0 and subsequently incubated at temperatures between 2° C. and 60° C. […] (see table 2).

[6] = system: β-galactosidase-expressing E. coli strain; assay: Wash resistance and biocidal activity of Py-C12 treated cotton fabric (Example 18); type: cell-based; details: treated with 1% (w/v) free base, E. coli 3 days at 37° C.
Procedure: as §1, with “base in water was warmed” for “base in water) was warmed”, “After incubation with the” for “After incubation of beech wood sheets with the”, “10 and 30 times for” for “10 and times for”, “incubated for 3 days at” for “incubated for 4 days at”

[7] = free base; i.e. 0.0033% (w/v) at ph 9.5; cited from earlier work

SMILES: CCCCCCCCCCCCNCCCNC(=O)C1CCC(=O)N1 (stereo not drawn) [Py-C12, 5-N-carboxamido-2-pyrrolidone-N′-n-dodecyl propane-1,3-diamine]
- bacterial growth on treated beech wood sheets after washing [1]: Blue coloured bacteria only appear on control sample
- solubility in water / state of matter ([2]; pH values </=7.8, room temperature): completely soluble
- solubility in water / state of matter ([2]; pH values >/=8): solid substance
- state of matter ([2]; pH 3.0): X
- state of matter ([2]; pH 4.0): X
- state of matter ([2]; pH 5.0): X
- state of matter ([2]; pH 6.0): X
- state of matter ([2]; pH 7.0): X
- state of matter ([2]; pH 7.8): X
- state of matter ([2]; pH 8.0): o
- state of matter ([2]; pH 9.0): o
- state of matter ([2]; pH 10.0): o
- solubility in water ([3]; 1% (w/v) free base adjusted with HCl to pH 7, room temperature): completely soluble
- state of matter after pH increase ([3]; 1% (w/v), NaOH added to increase pH above 9.0, time dependent): started to precipitate
- Germ reduction factor log10 (Candida albicans): 4.2 log10
- Germ reduction factor log10 (Pseudomonas aeruginosa): ≥5.6 log10
- Germ reduction factor log10 (Aspergillus brasiliensis): 4.6 log10
- Germ reduction factor log10 (Escherichia coli): ≥5.5 log10
- Germ reduction factor log10 (Staphylococcus aureus): ≥5.6 log10
- NaCl concentration at which a clearly visible precipitate is observed [4]: ≥ 1.5 M
- solubility in water / state of matter ([5]; pH 7, temperatures between 2° C. and 60° C.): completely soluble
- solubility in water / state of matter ([5]; pH 9.0, temperatures between 2° C. and 60° C.): only present in liquid state at the tested temperatures of 50 °C and 60 °C
- state of matter ([5]; pH 7.0, 2° C.): X
- state of matter ([5]; pH 7.0, 4° C.): X
- state of matter ([5]; pH 7.0, 8° C.): X
- state of matter ([5]; pH 7.0, 12° C.): X
- state of matter ([5]; pH 7.0, 16° C.): X
- state of matter ([5]; pH 7.0, 20° C.): X
- state of matter ([5]; pH 7.0, 30° C.): X
- state of matter ([5]; pH 7.0, 38° C.): X
- state of matter ([5]; pH 7.0, 50° C.): X
- state of matter ([5]; pH 7.0, 60° C.): X
- state of matter ([5]; pH 9.0, 2° C.): o
- state of matter ([5]; pH 9.0, 4° C.): o
- state of matter ([5]; pH 9.0, 8° C.): o
- state of matter ([5]; pH 9.0, 12° C.): o
- state of matter ([5]; pH 9.0, 16° C.): o
- state of matter ([5]; pH 9.0, 20° C.): o
- state of matter ([5]; pH 9.0, 30° C.): o
- state of matter ([5]; pH 9.0, 38° C.): o
- state of matter ([5]; pH 9.0, 50° C.): X
- state of matter ([5]; pH 9.0, 60° C.): X
- bacterial growth on treated cotton fabric after washing ([6]; washed 10 times with water 15 min): doesn't show any bacterial growth
- bacterial growth on treated cotton fabric after washing ([6]; washed 30 times with water 15 min): few spots
- solubility in water [7]: 0.033 mg/mL (≈ 93.3 µM)
